# US8044198B2, “Sirtuin modulating compounds” (Sirtris Pharmaceuticals, Inc., priority 2005, dated 2011)
# Read-outs that look alike come from different tables or passages of the source.
# Target: T1, SIRT1 (Homo sapiens, UniProt Q96EB6)
# T1 sequence (Q96EB6 1-747): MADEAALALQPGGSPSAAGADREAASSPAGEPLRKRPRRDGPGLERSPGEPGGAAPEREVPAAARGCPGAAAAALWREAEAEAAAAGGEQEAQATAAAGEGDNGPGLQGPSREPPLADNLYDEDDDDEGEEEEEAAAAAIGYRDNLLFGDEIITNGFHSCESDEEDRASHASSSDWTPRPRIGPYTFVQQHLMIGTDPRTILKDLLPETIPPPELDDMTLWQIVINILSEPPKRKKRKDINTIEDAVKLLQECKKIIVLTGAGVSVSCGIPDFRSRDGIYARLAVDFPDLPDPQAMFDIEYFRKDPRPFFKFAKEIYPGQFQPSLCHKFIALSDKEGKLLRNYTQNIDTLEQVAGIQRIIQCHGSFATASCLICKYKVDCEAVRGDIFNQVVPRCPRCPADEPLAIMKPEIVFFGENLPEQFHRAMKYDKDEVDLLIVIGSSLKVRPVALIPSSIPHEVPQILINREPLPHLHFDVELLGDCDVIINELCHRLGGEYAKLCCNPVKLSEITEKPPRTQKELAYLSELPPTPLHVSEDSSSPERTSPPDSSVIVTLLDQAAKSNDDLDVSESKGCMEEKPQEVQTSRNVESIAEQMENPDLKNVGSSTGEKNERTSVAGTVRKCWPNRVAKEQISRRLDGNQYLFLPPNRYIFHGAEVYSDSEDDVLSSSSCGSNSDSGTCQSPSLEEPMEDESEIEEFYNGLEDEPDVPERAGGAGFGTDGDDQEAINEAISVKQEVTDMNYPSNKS
# Assay: SIRT1 mass spectrometry (MS) based deacetylation assay; on FOLD ACT. MS: test concentration or dose not given here
# Assay type: biochemical
# Conditions: for EC50: mass spectrometry assay, read-out: ED50 MS ASSAY
# [1] = fold activation of SIRT1, mass spectrometry assay
# [2] = Sirt1 activators, fold activation as determined by MS
Structure (SMILES),EC50 (SIRT1 activation) [µM],FOLD ACT. MS [1],FOLD ACT. MS [2],EC50 (Sirt1 activators) [µM]
COc1ccc(C(=O)Nc2ccccc2-c2cnc3ccccc3c2)c(OC)c1 [Compound 413],51 to 100,B (B (Fold Activation <250%)),,
COc1ccc(C(=O)Nc2ccccc2-c2cnc3ccccc3c2)cc1OC [Compound 414],5 to 50,B (B (Fold Activation <250%)),,
COc1cc(C(=O)Nc2ccccc2-c2cnc3ccccc3c2)cc(OC)c1OC [Compound 415],51 to 100,B (B (Fold Activation <250%)),,
COc1ccc(C(=O)Nc2ccccc2-c2nc3cnccc3o2)c(OC)c1OC [Compound 421],5 to 50,B (B (Fold Activation <250%)),,
COc1ccc(C(=O)Nc2ccc(-c3nc4cnccc4o3)s2)c(OC)c1 [Compound 422],5 to 50,B (B (Fold Activation <250%)),,
COc1ccc(C(=O)Nc2ccc(-c3nc4cnccc4o3)s2)cc1OC [Compound 423],< 5,B (B (Fold Activation <250%)),,
COc1cc(C(=O)Nc2ccc(-c3nc4cnccc4o3)s2)cc(OC)c1OC [Compound 426],< 5,B (B (Fold Activation <250%)),,
CN(C)c1cccc(C(=O)Nc2ccc(-c3nc4cnccc4o3)s2)c1 [Compound 427],< 5,B (B (Fold Activation <250%)),,
COc1ccc(C(=O)Nc2cccc(-c3nc4ccncc4o3)c2)c(OC)c1 [Compound 429],< 5,B (B (Fold Activation <250%)),,
COc1cc(C(=O)Nc2cccc(-c3nc4ccncc4o3)c2)cc(OC)c1OC [Compound 430],5 to 50,A (A (Fold activation >250%)),,
CN(C)c1ccc(C(=O)Nc2cccc(-c3nc4ccncc4o3)c2)cc1 [Compound 431],5 to 50,B (B (Fold Activation <250%)),,
COc1cc(C(=O)Nc2ccccc2-c2nc3ccncc3s2)ccc1CN1CCCC1 [Compound 436],5 to 50,A (A (Fold activation >250%)),,
COc1ccc(C(=O)Nc2ccccc2-c2cn3cccnc3n2)c(OC)c1 [Compound 437],5 to 50,B (B (Fold Activation <250%)),,
COc1ccc(C(=O)Nc2ccccc2-c2cn3cccnc3n2)cc1OC [Compound 438],< 5,A (A (Fold activation >250%)),,
COc1cc(C(=O)Nc2ccccc2-c2cn3cccnc3n2)cc(OC)c1OC [Compound 439],< 5,B (B (Fold Activation <250%)),,
O=C(Nc1ccccc1-c1cn2c(CN3CCNCC3)csc2n1)c1ccc2ccccc2n1 [Compound 440],< 5,A (A (Fold activation >250%)),,
O=C(Nc1ccccc1-c1cn2c(CN3CCNCC3)csc2n1)c1cnc2ccccc2n1 [Compound 441],< 5,A (A (Fold activation >250%)),,
Cc1c(C(=O)Nc2ccccc2-c2cn3c(CN4CCNCC4)csc3n2)oc2ccccc12 [Compound 442],< 5,A (A (Fold activation >250%)),,
Cc1cc(C(=O)Nc2ccccc2-c2cn3c(CN4CCNCC4)csc3n2)c(C)o1 [Compound 443],5 to 50,A (A (Fold activation >250%)),,
CSc1ccc(C(=O)Nc2ccccc2-c2cn3c(CN4CCNCC4)csc3n2)cc1 [Compound 444],5 to 50,A (A (Fold activation >250%)),,
O=C(Cc1ccccc1)Nc1ccccc1-c1cn2c(CN3CCNCC3)csc2n1 [Compound 445],5 to 50,B (B (Fold Activation <250%)),,
O=C(Nc1ccccc1-c1cn2c(CN3CCNCC3)csc2n1)c1cccs1 [Compound 446],5 to 50,B (B (Fold Activation <250%)),,
COc1cc(OC)cc(C(=O)Nc2cccc(-c3nc4ccncc4o3)c2)c1 [Compound 451],5 to 50,B (B (Fold Activation <250%)),,
COc1ccc(C(=O)Nc2cccc(-c3nc4ccncc4o3)c2)c(OC)c1OC [Compound 452],5 to 50,B (B (Fold Activation <250%)),,
CN(C)c1cccc(C(=O)Nc2cccc(-c3nc4ccncc4o3)c2)c1 [Compound 453],5 to 50,B (B (Fold Activation <250%)),,
COc1ccc(C(=O)Nc2cccc(-c3nc4ccncc4o3)c2)cc1OC [Compound 454],5 to 50,B (B (Fold Activation <250%)),,
COc1ccc(C(=O)Nc2ccccc2-c2nc3ccncc3o2)c(OC)c1 [Compound 455],< 5,B (B (Fold Activation <250%)),,
COc1cc(OC)cc(C(=O)Nc2ccccc2-c2nc3ccncc3o2)c1 [Compound 456],< 5,B (B (Fold Activation <250%)),,

Structure (SMILES),EC50 (SIRT1 activation) [µM],FOLD ACT. MS [1],FOLD ACT. MS [2],EC50 (Sirt1 activators) [µM]
COc1cc(C(=O)Nc2ccccc2-c2nc3ccncc3o2)cc(OC)c1OC [Compound 457],5 to 50,B (B (Fold Activation <250%)),,
CN(C)c1cccc(C(=O)Nc2ccccc2-c2nc3ccncc3o2)c1 [Compound 458],< 5,B (B (Fold Activation <250%)),,
CN(C)c1ccc(C(=O)Nc2ccccc2-c2nc3ccncc3o2)cc1 [Compound 459],,,B (B (Fold Activation <250%)),< 5
O=C(CCc1ccccc1)Nc1ccccc1-c1nc2ccncc2s1 [Compound 460],,,,5 to 50
Cc1cc(C(=O)Nc2ccccc2-c2nc3ccncc3s2)n(C(C)(C)C)n1 [Compound 462],,,,< 5
CC(Oc1ccccc1)C(=O)Nc1ccccc1-c1nc2ccncc2s1 (stereo not shown) [Compound 463],,,,5 to 50
Cc1cc(C)cc(C(=O)Nc2cc(-c3nc4ncccc4o3)ccn2)c1 [Compound 468],,,B (B (Fold Activation <250%)),5 to 50
COC(=O)c1cccc(NC(=S)Nc2cccc(-c3nc4ccncc4s3)c2)c1 [Compound 473],,,,< 5
S=C(Nc1ccc(-n2cccn2)cc1)Nc1cccc(-c2nc3ccncc3s2)c1 [Compound 481],,,,5 to 50
Cc1cc(C)cc(C(=O)Nc2ccccc2-c2nc3ncccc3o2)c1 [Compound 482],,,B (B (Fold Activation <250%)),< 5
S=C(Nc1ccc(N2CCOCC2)nc1)Nc1cccc(-c2nc3ccncc3s2)c1 [Compound 484],,,B (B (Fold Activation <250%)),5 to 50
S=C(Nc1cccnc1)Nc1cccc(-c2nc3ccncc3s2)c1 [Compound 485],,,,5 to 50
COc1ccc(CNC(=S)Nc2cccc(-c3nc4ccncc4s3)c2)cc1 [Compound 498],,,,5 to 50
COc1cc(C(=O)Nc2ccccc2-c2nc3ccccc3[nH]2)ccc1CN1CCOCC1 [Compound 503],,,A (A (Fold activation >250%)),< 5
CN(C)c1cccc(C(=O)Nc2ccccc2-c2cn3cccnc3n2)c1 [Compound 504],,,B (B (Fold Activation <250%)),5 to 50
COc1cc(C(=O)Nc2cccc(-c3nc4ncccc4o3)c2)ccc1CN1CCCC1 [Compound 506],,,A (A (Fold activation >250%)),5 to 50
COc1ccc(C(=O)Nc2ccc(C)cc2-c2nc3ccccc3[nH]2)cc1OC [Compound 507],,,A (A (Fold activation >250%)),< 5
O=C(Nc1ccccc1-c1nc2ccccc2[nH]1)c1cnc2ccccc2n1 [Compound 508],,,A (A (Fold activation >250%)),< 5
O=C(Nc1ccccc1-c1cn2c(CN3CCNCC3)csc2n1)c1c[nH]c2ccccc12 [Compound 510],,,A (A (Fold activation >250%)),< 5
O=C(Nc1ccccc1-c1cn2c(CN3CCNCC3)csc2n1)c1c[nH]nc1-c1ccccc1 [Compound 512],,,A (A (Fold activation >250%)),< 5
O=C(Nc1ccccc1-c1cn2cc(CN3CCNCC3)sc2n1)c1cnc2ccccc2n1 [Compound 513],,,A (A (Fold activation >250%)),< 5
O=C(Nc1cccc(-c2nc3nc(CN4CCNCC4)ccc3o2)c1)c1cnc2ccccc2n1 [Compound 514],,,B (B (Fold Activation <250%)),5 to 50
COc1ccc(C(=O)Nc2ccc(-c3nc4cnccc4s3)s2)c(OC)c1 [Compound 515],,,B (B (Fold Activation <250%)),< 5
CN(C)c1cccc(C(=O)Nc2ccc(-c3nc4cnccc4s3)s2)c1 [Compound 518],,,B (B (Fold Activation <250%)),< 5
CN(C)c1ccc(C(=O)Nc2ccc(-c3nc4cnccc4s3)s2)cc1 [Compound 519],,,B (B (Fold Activation <250%)),< 5
COc1cc(C(=O)Nc2ccc(-c3nc4cnccc4s3)s2)cc(OC)c1OC [Compound 520],,,B (B (Fold Activation <250%)),< 5
COc1cc(OC)cc(C(=O)Nc2ccccc2-c2nc3cccnc3[nH]2)c1 [Compound 521],,,B (B (Fold Activation <250%)),< 5
